Earlier results, collected in patent US20020169561A1, “Modular computational models for predicting the pharmaceutical properties of chemical compunds” (priority 2001, published 2002).
Where “and” joins values, the source holds several entries; their conditions need not be identical. Identical values can stand only once. Like-named read-outs stand apart in the source and are kept apart here.

Columns and labels:
[1] = test system: Caco-2 cell monolayer
[2] = in vivo drug absorption, compiled by search of the literature
[3] = molecular target: T1, renin (Homo sapiens, UniProt P00797); design: −ΔS: unit not given here; details: for −ΔH: enthalpy of binding to renin; for −ΔS: entropy of binding to renin; for −ΔG: free energy of binding to renin; for Kd: renin inhibitors
T1 sequence (P00797 67-406): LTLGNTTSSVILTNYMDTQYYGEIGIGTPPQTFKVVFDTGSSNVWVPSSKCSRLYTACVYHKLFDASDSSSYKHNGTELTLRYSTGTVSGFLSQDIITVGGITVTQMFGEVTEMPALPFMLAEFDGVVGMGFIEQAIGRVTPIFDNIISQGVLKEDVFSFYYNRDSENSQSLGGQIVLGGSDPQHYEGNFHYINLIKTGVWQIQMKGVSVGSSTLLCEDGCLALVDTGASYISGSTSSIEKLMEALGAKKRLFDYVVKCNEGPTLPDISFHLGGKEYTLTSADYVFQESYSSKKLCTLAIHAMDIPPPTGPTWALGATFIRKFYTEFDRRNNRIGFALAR

[4] = Caco-2 permeability coefficient, Table 3
[5] = observed, training set, Table 7

C[C@]12CC[C@H]3[C@@H](CCC4=CC(=O)CC[C@@]43C)[C@@H]1CC[C@@H]2O [Testosterone]
Obs. Pcaco-2x10^6 ([1]; Caco-2): 24.9 x10^6 | % Absorbed [2]: 100%

CNCCCN1c2ccccc2CCc2ccccc21 [Desipramine]
Permeability × 10^6 (cm/sec) [1, 4]: 24.20 × 10^6 (cm/sec) | Obs. Pcaco-2x10^6 [1, 5]: 24.2 x10^6 | % Absorbed [2]: 95%

C[C@]12C[C@H](O)[C@H]3[C@@H](CCC4=CC(=O)CC[C@@]43C)[C@@H]1CC[C@@H]2C(=O)CO [Corticosterone]
Obs. Pcaco-2x10^6 [1, 5]: 21.2 x10^6 | % Absorbed [2]: 100%

CC(C)(C)NC[C@H](O)COc1nsnc1N1CCOCC1 [Timolol]
Permeability × 10^6 (cm/sec) [1, 4]: 12.80 × 10^6 (cm/sec) | Obs. Pcaco-2x10^6 [1, 5]: 12.8 x10^6 | % Absorbed [2]: 72%

Iva-his-pro-phe-his-sta-ile-phe-NH2 [Compound U77455E]
−ΔH [3]: 89.37 kJ/mol | −ΔS [3]: 108.9 | −ΔG [3]: 51.9 kJ/mol | Kd [3]: 0.0017 µM

CC(CCc1ccccc1)NCC(O)c1ccc(O)c(C(N)=O)c1 (stereo not shown) [Labetalol]
% Absorbed [2]: 90%

CC(=O)[C@H]1CC[C@H]2[C@@H]3CCC4=CC(=O)CC[C@]4(C)[C@H]3CC[C@]12C [Progesterone]
Permeability × 10^6 (cm/sec) [1, 4]: 23.70 × 10^6 (cm/sec) | Obs. Pcaco-2x10^6 [1, 5]: 23.7 x10^6

Ac-his-pro-phe-his-sta-ile-NH2 [Compound U72409E]
−ΔH [3]: 94.68 kJ/mol | −ΔS [3]: 108.0 | −ΔG [3]: 45.2 kJ/mol | Kd [3]: 0.023 µM

CN1C(=O)CN=C(c2ccccc2)c2cc(Cl)ccc21 [Diazepam]
% Absorbed [2]: 100%

Ac-D-pro-phe-his-leu-Y[CH(OH)CH2]val-ile-NH2 [Compound U77647E]
−ΔH [3]: 85.06 kJ/mol | −ΔS [3]: 105.5 | −ΔG [3]: 51.9 kJ/mol | Kd [3]: 0.0013 µM

NC(N)=O [Urea]
Permeability × 10^6 (cm/sec) [1, 4]: 4.56 × 10^6 (cm/sec)

O=C(O)c1ccccc1O [Salicylic acid]
Permeability × 10^6 (cm/sec) [1, 4]: 22.00 × 10^6 (cm/sec) | Obs. Pcaco-2x10^6 [1, 5]: 22 x10^6

CN1CCCC1c1cccnc1 (stereo not shown) [Nicotine]
Obs. Pcaco-2x10^6 ([1]; Caco-2): 19.4 x10^6 | Permeability × 10^6 (cm/sec) ([1]; Caco-2): 19.40 × 10^6 (cm/sec) | % Absorbed [2]: 100%

CC(C)(C)NCC(O)c1cc(O)cc(O)c1 (stereo not shown) [Terbutaline]
Permeability × 10^6 (cm/sec) [1, 4]: 0.47 × 10^6 (cm/sec) | Obs. Pcaco-2x10^6 [1, 5]: 0.47 x10^6 | % Absorbed [2]: 73%

COCCc1ccc(OCC(O)CNC(C)C)cc1 (stereo not shown) [Metoprolol]
Permeability × 10^6 (cm/sec) [1, 4]: 23.70 × 10^6 (cm/sec) | Obs. Pcaco-2x10^6 [1, 5]: 23.7 x10^6

Nc1nc2c(ncn2COCCO)c(=O)[nH]1 [Acyclovir]
Permeability × 10^6 (cm/sec) [1, 4]: 0.25 × 10^6 (cm/sec) | Obs. Pcaco-2x10^6 [1, 5]: 0.25 x10^6

OC[C@@H](O)[C@@H](O)[C@H](O)[C@H](O)CO [Mannitol]
Permeability × 10^6 (cm/sec) [1, 4]: 0.38 × 10^6 (cm/sec) | % Absorbed [2]: 16%

Cc1cn([C@H]2C[C@H](N=[N+]=[N-])[C@@H](CO)O2)c(=O)[nH]c1=O [Zidovudine]
Permeability × 10^6 (cm/sec) [1, 4]: 6.93 × 10^6 (cm/sec) | % Absorbed [2]: 100%

O=C(O)c1cc(/N=N/c2ccc(S(=O)(=O)Nc3ccccn3)cc2)ccc1O [Sulfasalazine]
Permeability × 10^6 (cm/sec) [1, 4]: 0.30 × 10^6 (cm/sec) | Obs. Pcaco-2x10^6 [1, 5]: 0.3 x10^6

c1ccc(C2(N3CCCCC3)CCCCC2)cc1 [Phencyclidine]
Obs. Pcaco-2x10^6 ([1]; Caco-2): 24.7 x10^6 | Permeability × 10^6 (cm/sec) ([1]; Caco-2): 24.70 × 10^6 (cm/sec)

COc1ccc2c(c1)c(CC(=O)O)c(C)n2C(=O)c1ccc(Cl)cc1 [Indomethacin]
Permeability × 10^6 (cm/sec) [1, 4]: 20.40 × 10^6 (cm/sec) | Obs. Pcaco-2x10^6 [1, 5]: 20.4 x10^6

C=CCc1ccccc1OCC(O)CNC(C)C (stereo not shown) [Alprenolol]
Permeability × 10^6 (cm/sec) [1, 4]: 25.30 × 10^6 (cm/sec) | Obs. Pcaco-2x10^6 [1, 5]: 25.3 x10^6 | % Absorbed [2]: 93%

Ac-pro-phe-his-phe-Y[CH2NH]phe-Mba [Compound U77451E]
−ΔH [3]: 111.7 kJ/mol | −ΔS [3]: 125.3 | −ΔG [3]: 51 kJ/mol | Kd [3]: 0.0025 µM

Ac-phe-his-phe-Y[CH2NH]phe-NH2 [Compound U73777E]
−ΔH [3]: 59.41 kJ/mol | −ΔS [3]: 76.3 | −ΔG [3]: 39.3 kJ/mol | Kd [3]: 0.22 µM

C[C@@H]1C[C@H]2[C@@H]3CCC4=CC(=O)C=C[C@]4(C)[C@@]3(F)[C@@H](O)C[C@]2(C)[C@@]1(O)C(=O)CO [Dexamethasone]
% Absorbed [2]: 100%

Ac-pro-phe-his-sta-ile-NH2 [Compound U72408E]
−ΔH [3]: 61.46 kJ/mol | −ΔS [3]: 79.6 | −ΔG [3]: 41.4 kJ/mol | Kd [3]: 0.098 µM

O=C1NC(=O)C(c2ccccc2)(c2ccccc2)N1 [Phenytoin]
Permeability × 10^6 (cm/sec) [1, 4]: 26.70 × 10^6 (cm/sec) | Obs. Pcaco-2x10^6 [1, 5]: 26.7 x10^6 | % Absorbed [2]: 90%

CC(=O)CC(c1ccccc1)c1c(O)c2ccccc2oc1=O (stereo not shown) [Warfarin]
Permeability × 10^6 (cm/sec) [1, 4]: 21.10 × 10^6 (cm/sec)

CC(C)NCC(O)COc1cccc2[nH]ccc12 (stereo not shown) [Pindolol]
Permeability × 10^6 (cm/sec) [1, 4]: 16.70 × 10^6 (cm/sec) | Obs. Pcaco-2x10^6 [1, 5]: 16.7 x10^6 | % Absorbed [2]: 95%

CN(C)CCCN1c2ccccc2Sc2ccc(Cl)cc21 [Chlorpromazine]
Permeability × 10^6 (cm/sec) [1, 4]: 19.90 × 10^6 (cm/sec) | Obs. Pcaco-2x10^6 [1, 5]: 19.9 x10^6 | % Absorbed [2]: 90%

NCCc1ccc(O)c(O)c1 [Dopamine]
Permeability × 10^6 (cm/sec) [1, 4]: 9.33 × 10^6 (cm/sec) | Obs. Pcaco-2x10^6 [1, 5]: 9.33 x10^6

CC(C)NCC(O)COc1cccc2ccccc12 (stereo not shown) [Propranolol]
Permeability × 10^6 (cm/sec) [1, 4]: 21.80 × 10^6 (cm/sec)

Ac-pro-phe-his-leu-Y[CH(OH)CH2]val-ile-NH2 [Compound U77646E]
−ΔH [3]: 120.3 kJ/mol | −ΔS [3]: 131.1 | −ΔG [3]: 48.1 kJ/mol | Kd [3]: 0.0054 µM

Nc1nc(O)c2ncn(COC(CO)CO)c2n1 [Ganciclovir]
% Absorbed [2]: 3%

Ac-pro-phe-his-phe-Y[CH2NH]phe-NH2 [Compound U71909E]
−ΔH [3]: 57.32 kJ/mol | −ΔS [3]: 78.4 | −ΔG [3]: 44.4 kJ/mol | Kd [3]: 0.029 µM

Ac-phe-his-sta-ile-NH2 [Compound U72407E]
−ΔH [3]: 109.2 kJ/mol | −ΔS [3]: 114.8 | −ΔG [3]: 39.7 kJ/mol | Kd [3]: 0.203 µM and 0.204 µM

Clc1cccc(Cl)c1N=C1NCCN1 [Clonidine]
Permeability × 10^6 (cm/sec) [1, 4]: 21.80 × 10^6 (cm/sec) | Obs. Pcaco-2x10^6 [1, 5]: 21.8 x10^6 | % Absorbed [2]: 100%

Cc1c(N(C)C)c(=O)n(-c2ccccc2)n1C [Aminopyrine]
Permeability × 10^6 (cm/sec) [1, 4]: 36.5 × 10^6 (cm/sec)

CCC12CCN(CC3(O)CC3)C(Cc3ccc(O)cc31)C2(C)C (stereo not shown) [Bremazocine]
Permeability × 10^6 (cm/sec) ([1]; Caco-2): 8.02 × 10^6 (cm/sec) | Obs. Pcaco-2x10^6 [1, 5]: 8.02 x10^6

Ac-phe-his-leu-y[CH(OH)CH2]val-ile-NH2 [Compound U80631E]
−ΔH [3]: 59.75 kJ/mol | −ΔS [3]: 75.7 | −ΔG [3]: 38.5 kJ/mol | Kd [3]: 0.37 µM

CC(C)(C)NCC(O)COc1cccc2c1CC(O)C(O)C2 (stereo not shown) [Nadolol]
Permeability × 10^6 (cm/sec) [1, 4]: 3.88 × 10^6 (cm/sec) | Obs. Pcaco-2x10^6 [1, 5]: 3.88 x10^6
